Residues, ends and D or L forms follow the SMILES beside them. *: point of attachment. Cbz = O=C(OCc1ccccc1)*
Test system: DISC1, HEK293 cells
Assay: Endogenous DISC1 protein level in HEK293 cells, western blot
Type: cell-based, human
Conditions: MG132 10–60 μM, 1 h, Figure 1b
Protocol: HEK293 cells were sourced from ATCC (CRL-1573) and cultured as described in the manufacturer’s protocol. DMEM (SIGMA) supplemented with 10% fetal bovine serum, 2 mM L-glutamine, […] penicillin-streptomycin at 37 °C in a humidified atmosphere of 5% CO2. The cells were passaged at about 80% confluency. Cells were transfected with plasmid DNA using polyfect transfection reagent (Qiagen) according to the manufacturer’s instructions. HEK293 cells were treated with the pharmacological agents cycloheximide (C7698) and MG132 (M7449) (Sigma-Aldrich) or DISC1 disruptor peptides (custom synthesized by Severn Biotech) as described in the text.
Briefly, detergent-soluble proteins were isolated from cells by disruption in lysis buffer 20 mM Tris-HCl (pH 7.5), 150 mM NaCl, 1 mM Na2EDTA, 1 mM EGTA, 1% triton, 2.5 mM sodium pyrophosphate, 1 mM β-glycerophosphate, 1 mM Na3VO4, 1 μg ml^–1 leupeptin, 10 mM DTT with Roche protease inhibitor, phosSTOP (Roche, 04906837001). Detergent-insoluble proteins were removed by centrifugation at 10 000 g for 10 min, and the soluble fraction was retained. Cell lysates were adjusted to equal protein amount (1 μg μl^–1) using cell lysis buffer. Cell lysates normalized for the protein concentration were incubated with mouse IgG (Millipore, 12487) Protein A agarose beads for 2 h at 4 °C. […] The complexes were analyzed on SDS PAGE. […]

CC(C)C[C@@H](C=O)NC(=O)[C@H](CC(C)C)NC(=O)[C@H](CC(C)C)NC(=O)OCc1ccccc1 [MG132] (Cbz-Leu-Leu-Leu-aldehyde)
endogenous DISC1 level after MG132: elevated
